Source: patent US7452688B2, “Transformed cell with enhanced sensitivity to antifungal compound and use thereof” (Sumitomo Chemical Company, Limited, priority 2002, dated 2008)

Experiments:
Format in all cases: cell-based, Saccharomyces cerevisiae
[1] = tested on: transformed budding yeast AH22-BcOS1; experiment: Antifungal compound sensitivity test, transformed budding yeast AH22-BcOS1 (Example 3); conditions: 30° C. 48 hours, absorbance at 600 nm relative to 0 ppm = 100
Protocol: (§1) The transformed budding yeast AH22-BcOS1 prepared in Example 2 was cultured while shaking at 30° C. for 18 hours in a Glu-Leu medium. As a control, the AH22 strain was similarly cultured while shaking at 30° C. for 18 hours in a Glu medium. The absorbance at 600 nm of each of the grown transformed budding yeasts in a cell suspension was measured, and a cell suspension diluted with sterilized distilled water to the absorbance of 0.1 was prepared. Further, a cell suspension in which the aforementioned cell suspension of the transformed budding yeast AH22-BcOS1 was diluted 200-fold with a Glu-Leu medium, and a cell suspension in which the aforementioned cell suspension of the AH22 strain was diluted 200-fold with a Glu medium were prepared. A solution in which each of Compounds (1) to (3) was dissolved in dimethylsulfoxide (DMSO) to the concentration of 60 ppm, a solution in which each of Compounds (4) and (5) was dissolved in dimethylsulfoxide (DMSO) to the concentration of 2000 ppm, and a solution in which each of Compounds (6) and (7) was dissolved in dimethylsulfoxide (DMSO) to the concentration of 20 ppm were prepared, and two microplates were prepared in which each 2.0 μL per well of the Compound solution and DMSO as a control were dispensed into two wells. In one microplate among them, each 200 μL of cell suspensions of the transformed budding yeast AH22-BcOS1 which had been prepared by dilution as described above was dispensed, and cultured by allowing to stand at 30° C. for 48 hours. In another microplate, each 200 μL of the cell suspensions of the control yeast AH22 strain which had been prepared by dilution as described above was dispensed, and cultured by allowing to stand at 30° C. for 48 hours. After culturing, the absorbance at 600 nm of each well was measured with a microplate reader.
(§2) Degree of growths of both of the transformed budding yeasts cultured under the presence of each of Compound (1) to (7) and budding yeast as a control therefor are shown in Table 1. Degree of growths of both of the transformed budding yeasts and budding yeasts as a control therefor are expressed by a relative value in percentage, letting the absorbance at 600 nm in a well having the concentration of the aforementioned Compound of 0 ppm to be 100. It was confirmed that an inhibiting degree of growth of TM182-BcOS1 by each test substance was grater than an inhibiting degree of growth of AH22-BcOS1 by each test substance, and the TM182-BcOS1 was a transformed cell with the enhanced sensitivity to an antifungal compound as compared with AH22-BcOS1.

AH22 strain = experiment: Antifungal compound sensitivity test, control yeast AH22 strain (Example 3); conditions: 30° C. 48 hours, absorbance at 600 nm relative to 0 ppm = 100
Protocol: as §1, §2

[2] = tested on: transformed budding yeast TM182-StOS1; experiment: Antifungal compound sensitivity test of transformed budding yeast TM182-StOS1 (Example 16); conditions: for Degree of growth of budding yeast TM182-StOS1 Gal-Ura-Leu medium: control medium, 30° C. 49.5 hours; for Degree of growth of budding yeast TM182-StOS1 Gul-Ura-Leu medium: 30° C. 26.5 hours
Protocol: Similarly, the transformed budding yeast TM182-StOS1 prepared in Example 15 was cultured at 30° C. for 18 hours in a Glu-Ura-Leu medium. The absorbance at 600 nm of the grown transformed budding yeast in a cell suspension was measured, and a cell suspension diluted with sterilized distilled water to the absorbance of 0.1 was prepared. Further, a cell suspension in which the transformed budding yeast TM182-StOS1 was diluted 50-fold with a Glu-Ura-Leu medium and, as a control, a cell suspension in which the yeast was diluted 50-fold with a Gal-Ura-Leu medium were prepared.
A solution in which each of Compounds (1) to (3) was dissolved in dimethylsulfoxide (DMSO) to the concentration of 6 ppm, a solution in which each of Compounds (4) and (5) was dissolved in dimethylsulfoxide (DMSO) to the concentration of 2000 ppm, and a solution in which each of Compounds (6) and (7) was dissolved in dimethylsulfoxide (DMSO) to the concentration of 20 ppm were prepared, and two microplates were prepared in which each 2.0 μL per well of the Compound-DMSO solution and DMSO as a control were dispensed into 2 wells. In one microplate among them, each 100 μL of cell suspensions of the transformed budding yeast TM182-StOS1 which had been prepared by dilution with a Glu-Ura-Leu medium as described above was dispensed, and cultured by allowing to stand at 30° C. for 26.5 hours. In another microplate, as described above, as a control, each 100 μL of cell suspensions of the transformed budding yeast TM182-StOS1 which had been prepared by dilution with a Gal-Ura-Leu medium was dispensed, and cultured at 30° C. for 49.5 hours. After culturing, the absorbance at 600 nm of each well was measured with a microplate reader.
A degree of growth of the transformed budding yeast is expressed as a relative value in percentage, letting the absorbance at 600 nm at the concentration of the Compound of 0 ppm to be 100. It was confirmed that an inhibiting degree of growth of the transformed budding yeast TM182-StOS1 by each test substance was grater than an inhibiting degree of growth of the transformed budding yeast AH22-StOS1 by each test substance, and the transformed budding yeast TM182-StOS1 was a transformed cell with the enhanced sensitivity to an antifungal compound as compared with the transformed budding yeast AH22-StOS1.

Structure (SMILES): N#Cc1c[nH]cc1-c1cccc2c1OC(F)(F)O2 [Compound (6), Fludioxonil]
- Degree of growth of budding yeast (%) AH22-BcOS1 Glu-Leu medium ([1]; final concentration 0.2 ppm): 81%
- Degree of growth of budding yeast (%) AH22 Glu medium (AH22 strain; final concentration 0.2 ppm): 99%
- Degree of growth of budding yeast TM182-StOS1 Gal-Ura-Leu medium ([2]; final concentration 0.2 ppm): 97%
- Degree of growth of budding yeast TM182-StOS1 Gul-Ura-Leu medium ([2]; final concentration 0.2 ppm): 6%

Structure (SMILES): N#Cc1c[nH]cc1-c1cccc(Cl)c1Cl [Compound (7), Fenpiclonil]
- Degree of growth of budding yeast (%) AH22-BcOS1 Glu-Leu medium ([1]; final concentration 0.2 ppm): 94%
- Degree of growth of budding yeast (%) AH22 Glu medium (AH22 strain; final concentration 0.2 ppm): 101%
- Degree of growth of budding yeast TM182-StOS1 Gal-Ura-Leu medium ([2]; final concentration 0.2 ppm): 91%
- Degree of growth of budding yeast TM182-StOS1 Gul-Ura-Leu medium ([2]; final concentration 0.2 ppm): 9%

Structure (SMILES): O=[N+]([O-])c1c(Cl)c(Cl)c(Cl)c(Cl)c1Cl [Compound (4), Quintozene]
- Degree of growth of budding yeast (%) AH22-BcOS1 Glu-Leu medium ([1]; final concentration 20 ppm): 45%
- Degree of growth of budding yeast (%) AH22 Glu medium (AH22 strain; final concentration 20 ppm): 96%
- Degree of growth of budding yeast TM182-StOS1 Gal-Ura-Leu medium ([2]; final concentration 20 ppm): 99%
- Degree of growth of budding yeast TM182-StOS1 Gul-Ura-Leu medium ([2]; final concentration 20 ppm): 7%

Structure (SMILES): COP(=S)(OC)Oc1c(Cl)cc(C)cc1Cl [Compound (5), Tolclofos-methyl]
- Degree of growth of budding yeast (%) AH22-BcOS1 Glu-Leu medium ([1]; final concentration 20 ppm): 79%
- Degree of growth of budding yeast (%) AH22 Glu medium (AH22 strain; final concentration 20 ppm): 97%
- Degree of growth of budding yeast TM182-StOS1 Gal-Ura-Leu medium ([2]; final concentration 20 ppm): 74%
- Degree of growth of budding yeast TM182-StOS1 Gul-Ura-Leu medium ([2]; final concentration 20 ppm): 6%

Structure (SMILES): CC12CC1(C)C(=O)N(c1cc(Cl)cc(Cl)c1)C2=O (stereo not shown) [Compound (1), Procymidone]
- Degree of growth of budding yeast (%) AH22-BcOS1 Glu-Leu medium ([1]; final concentration 0.6 ppm): 90%
- Degree of growth of budding yeast (%) AH22 Glu medium (AH22 strain; final concentration 0.6 ppm): 99%
- Degree of growth of budding yeast TM182-StOS1 Gal-Ura-Leu medium ([2]; final concentration 0.6 ppm): 101%
- Degree of growth of budding yeast TM182-StOS1 Gul-Ura-Leu medium ([2]; final concentration 0.6 ppm): 67%

Structure (SMILES): CC(C)NC(=O)N1CC(=O)N(c2cc(Cl)cc(Cl)c2)C1=O [Compound (2), Iprodione]
- Degree of growth of budding yeast (%) AH22-BcOS1 Glu-Leu medium ([1]; final concentration 0.6 ppm): 92%
- Degree of growth of budding yeast (%) AH22 Glu medium (AH22 strain; final concentration 0.6 ppm): 99%
- Degree of growth of budding yeast TM182-StOS1 Gal-Ura-Leu medium ([2]; final concentration 0.6 ppm): 97%
- Degree of growth of budding yeast TM182-StOS1 Gul-Ura-Leu medium ([2]; final concentration 0.6 ppm): 23%

Structure (SMILES): C=CC1(C)OC(=O)N(c2cc(Cl)cc(Cl)c2)C1=O (stereo not shown) [Compound (3), Vinclozolin]
- Degree of growth of budding yeast (%) AH22-BcOS1 Glu-Leu medium ([1]; final concentration 0.6 ppm): 93%
- Degree of growth of budding yeast (%) AH22 Glu medium (AH22 strain; final concentration 0.6 ppm): 98%
- Degree of growth of budding yeast TM182-StOS1 Gal-Ura-Leu medium ([2]; final concentration 0.6 ppm): 94%
- Degree of growth of budding yeast TM182-StOS1 Gul-Ura-Leu medium ([2]; final concentration 0.6 ppm): 19%
